Assay results published in patent publication US9549914B2, “Treatment of human cytomegalovirus by modulating Wnt” (priority 2014, dated 2017).

What was measured:
[1] = test system: pp28-luciferase HCMV Towne strain; assay: microbe, parasite or virus in culture; format: cell-based, Human Cytomegalovirus (HCMV)
Description: The pp28-luciferase HCMV Towne strain was constructed as previously described (14). This virus expresses luciferase under the control of the late CMV gene promoter, pp28. Luciferase expression is strongly activated 48-72 hours post infection (hpi). […] A GCV-resistant HCMV strain was obtained from a patient with CMV disease. […] Human herpes virus strains were: luciferase HSV1-KOS/Dlux/oriS (15) and clinical isolates of HSV1 and HSV2. All clinical isolates were provided by the clinical virology laboratory with no identifiers that can link to a specific subject. The Johns Hopkins Office of Human Subject Research Institutional Review Board determined that this research qualified for an exemption.
Human Foreskin Fibroblasts (HFFs) passage 12-16 (ATCC, CRL-2088™) were grown in Dulbecco's Modified Eagle Medium (DMEM) containing 10% fetal bovine serum (FBS) (Gibco, Carlsbad, Calif.) in a 5% CO2 incubator at 37° C. and used for infection with HCMV or HSV at multiplicity of infection of 1 PFU/cell (MOI=1) unless otherwise specified. Following 90 minute adsorption (60 min for HSV), media was removed and cells were washed with PBS. DMEM with 4% FBS containing compounds was added to each well. For HCMV, infected, treated HFFs were collected at 72 hpi and lysates were assayed for luciferase activity using a luciferase assay kit (Promega, Madison, Wis.) on GloMax®-Multi+ Detection System (Promega) according to manufacturer's instructions.

[2] = test system: Wnt/β-catenin signaling proteins; assay: Western blot of Wnt/β-catenin signaling proteins in HSV1-infected HFFs; format: cell-based, Human; conditions: 48 hpi with HSV1-KOS (Dlux/OriS), concentrations resulting in full HCMV inhibition
Description: FIG. 7: Effect of monensin, nigericin and salinomycin on expression of Wnt/β-catenin signaling proteins in non-infected and HSV1-infected HFFs. FIG. 7A: Expression of Wnt5a/b, Axin1, β-catenin, and actin (control) in non-infected (Mock), and HSV1-infected HFFs (MOI=0.1) treated with monensin (0.1 μM), nigericin (0.1 μM), salinomycin (1 μM) and GCV (10 μM) was determined after 48 h. Representative data from three independent experiments is shown. FIG. 7B: Expression of Wnt5a/b, Axin1, β-catenin, and actin (control) in non-infected (Mock), and HSV1-infected HFFs (MOI=0.1) treated with monensin (0.2 μM), nigericin (0.2 μM) and salinomycin (2 μM) and GCV (10 μM) was determined after 48 h. Representative data from three independent experiments is shown.
Cell lysates were quantified for protein content using bicinchoninic acid (BCA) protein assay kit (Pierce Chemical, Rockford, Ill.). Equivalent amount of proteins were mixed with an equal volume of 2× sample buffer (125 mM Tris-HCL, pH 6.8, 4% SDS, 20% glycerol and 5% β-mercaptoethanol) and boiled at 100° C. for 10 min (except for Wnt and pWnt detection for which samples were not boiled). Denatured proteins were resolved in Tris-glycine polyacrylamide gels (10-12%) and transferred to polyvinylidine difluoride (PVDF) membranes (Bio-Rad Laboratories, Hercules, Calif.) by electroblotting. Membranes were incubated in blocking solution [5% non-fat dry milk and 0.1% Tween-20 in PBS (PBST)] for 1 hr, washed three times with PBST, and incubated with appropriately diluted primary antibodies at 4° C. overnight. Membranes were washed with PBST and incubated with horseradish peroxidase-conjugated secondary antibodies in PBST for 1 hr at room temperature. Following washing with PBST, protein bands were visualized by chemiluminescence using SuperSignal West Dura and Pico reagents (Pierce Chemical, Rockford, Ill.). The following antibodies were used for detection of CMV proteins: mouse anti-IE1 and IE2, (MAb810); mouse anti-beta-actin antibody (Millipore, Billerica, Mass.); mouse anti-UL44 (Santa Cruz biotechnology Santa Cruz, Calif.); mouse anti-pp65 (Vector laboratories, Burlingame, Calif.); horseradish peroxidase (HRP)-conjugated anti-rabbit IgG (Cell Signaling Technology, Beverly, Mass.); and HRP-conjugated anti-mouse IgG, (GE Healthcare, Waukesha, Wis.). The following antibodies were used for detection of proteins in the Wnt pathway: anti-Wnt5a/b, Wnt, phospho-Wnt, Dvl2, Dvl3 and axin1 (Cell Signaling), β-catenin (E-5) (Santa Cruz biotechnology).

HSV1 clinical isolates = assay: HSV1 plaque assay in Vero cells; format: cell-based; conditions: Human alphaherpesvirus 1, 48 h; Vero cells, 200 PFU/well, plaques counted after 2 days; read-out: HSV1 EC50 (μM) Plaque Number (Vero)

## CO[C@@H]1C[C@@H](C[C@H]2CC[C@H](C)[C@H]([C@@H](C)C(=O)O)O2)O[C@]2(O[C@](C)([C@H]3CC[C@@](C)([C@@H]4O[C@@H]([C@H]5O[C@@](O)(CO)[C@H](C)C[C@@H]5C)C[C@@H]4C)O3)C[C@H]2C)[C@@H]1C [Nigericin, nigericin]
[1]; HCMV in HFFs, mean ± SD
  SI (selectivity index): 139 ± 23
[1]; Human betaherpesvirus 5, read-out: EC50 (μM), anti-HCMV activity
  EC50: 0.02 µM
[2]
  expression of Wnt 5a/b in HSV1-infected HFFs: inhibition
  expression of axin 1 in HSV1-infected HFFs: did not reduce
  expression of β-catenin in HSV1-infected HFFs: did not reduce
HSV1 clinical isolates
  EC50: 0.63 µM
